Experimental data published in patent US9873702B2, “Heterocyclic compounds as biogenic amine transport modulators” (Southern Research Institute, priority 2014, dated 2018).
Where two headings read alike, the source gives them in different places.

Assays:
[1] = molecular target: dopamine transporter (DAT) (Rattus norvegicus, UniProt P23977); test: Dopamine reuptake ([^3H]dopamine uptake) inhibition in rat brain synaptosomes
[2] = DA Uptake EC50 (nM ± SD), rat caudate synaptosomes, 5 nM [^3H]dopamine, 15 min, 25° C., three experiments pooled
[3] = read-out: DA Uptake Emax (% I ± SD)

Sequence of dopamine transporter (DAT) (P23977 whole entry): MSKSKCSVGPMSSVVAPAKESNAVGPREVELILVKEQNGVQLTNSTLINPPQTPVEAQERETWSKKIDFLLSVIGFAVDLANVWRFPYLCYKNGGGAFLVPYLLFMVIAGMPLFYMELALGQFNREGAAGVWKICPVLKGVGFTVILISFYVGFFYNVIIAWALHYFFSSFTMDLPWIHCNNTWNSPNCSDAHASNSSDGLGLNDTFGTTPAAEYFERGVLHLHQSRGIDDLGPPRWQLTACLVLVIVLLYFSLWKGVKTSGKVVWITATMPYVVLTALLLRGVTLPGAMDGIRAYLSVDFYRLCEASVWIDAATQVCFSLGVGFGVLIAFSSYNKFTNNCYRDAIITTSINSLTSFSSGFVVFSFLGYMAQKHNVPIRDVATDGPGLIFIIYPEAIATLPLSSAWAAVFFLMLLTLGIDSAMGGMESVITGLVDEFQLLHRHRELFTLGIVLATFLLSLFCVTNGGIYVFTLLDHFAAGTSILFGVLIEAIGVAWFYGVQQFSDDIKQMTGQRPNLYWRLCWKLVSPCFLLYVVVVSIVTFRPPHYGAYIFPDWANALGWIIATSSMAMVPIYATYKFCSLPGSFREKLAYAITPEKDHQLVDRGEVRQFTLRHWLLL

melting point [°C] | IC50 [1, 2] [nM] | Emax [1, 3] [%] | other results | Structure (SMILES)
97 to 99 |  |  |  | O=C(N[C@H](CNc1nc(-c2ccc3nccn3c2)nc2ccccc12)c1ccccc1)c1ccccc1 [compound 150, (S)—N-(2-((2-(Imidazo[1,2-A]Pyridin-6-yl)Quinazolin-4-yl)Amino)-1-Phenylethyl)Benzamide]
286 to 288 | 106 ± 19 | 68 ± 2 |  | c1ccc(OC(CNc2nc(-c3ccc4nccn4c3)nc3ccccc23)c2ccccc2)cc1 (stereo not drawn) [compound 175, 2-(Imidazo[1,2-A]Pyridin-6-yl)-N-(2-Phenoxy-2-Phenylethyl)Quinazolin-4-Amine]
221 to 224 | 14 ± 3 | 74 ± 2 |  | Cc1cc2nccn2cc1-c1nc(NCC(O)c2ccccc2)c2ccccc2n1 (stereo not drawn) [compound 186]
241 to 244 | 252 ± 22 | 73 ± 1 |  | Cc1cc2nccn2cc1-c1nc(NCCc2cccnc2)c2ccccc2n1 [compound 180, 2-(7-Methylimidazo[1,2-A]Pyridin-6-yl)-N-(2-(Pyridin-3-yl)Ethyl)Quinazolin-4-Amine]
224 | 175 ± 68 | 58 ± 4 |  | FC(F)(F)CNc1ncc(-c2nc(NCC(c3ccccc3)c3ccccc3)c3ccccc3n2)cn1 [compound 45, N-(2,2-Diphenylethyl)-2-(2-((2,2,2-Trifluoroethyl)Amino)Pyrimidin-5-yl)Quinazolin-4-Amine]
105 | 1310 | < 100 |  | CC(C)(C)OC(=O)n1cc(-c2nc(NCC(c3ccccc3)c3ccccc3)c3ccccc3n2)c2cccnc21 [compound 73, Tert-Butyl 3-(4-((2,2-Diphenylethyl)Amino)Quinazolin-2-yl)-1H-Pyrrolo[2,3-B]Pyridine-1-Carboxylate]
160 to 164 | 140 | 100 |  | c1ccc(C(CCNc2nc(N3CCCCC3)nc3ccccc23)c2ccccc2)cc1 [compound 9, N-(3,3-Diphenylpropyl)-2-(piperidin-1-yl)quinazolin-4-amine]
127 |  |  |  | CC(C)(C)OC(=O)N1CCc2cc(-c3nc(NCC(c4ccccc4)c4ccccc4)c4ccccc4n3)ccc21 [compound 74, Tert-Butyl 5-(4-((2,2-Diphenylethyl)Amino)Quinazolin-2-yl)Indoline-1-Carboxylate]
200 | 43 ± 9 | 66 ± 2 |  | Cn1ncc2cc(-c3nc(NCC(c4ccccc4)c4ccccc4)c4ccccc4n3)ccc21 [compound 67, N-(2,2-Diphenylethyl)-2-(1-Methyl-1H-Indazol-5-yl)Quinazolin-4-Amine]
90 |  |  |  | CC(C)(C)OC(=O)n1cc(-c2nc(NCC(c3ccccc3)c3ccccc3)c3ccccc3n2)c2ccccc21 [compound 72, Tert-Butyl 3-(4-((2,2-Diphenylethyl)Amino)Quinazolin-2-yl)-1H-Indole-1-Carboxylate]
> 250 |  |  |  | c1ccc(C(CNc2nc(-c3ccc4nccn4c3)nc3ccccc23)N2CCOCC2)cc1 (stereo not drawn) [compound 122, 2-(Imidazo[1,2-A]Pyridin-6-yl)-N-(2-Morpholino-2-Phenylethyl)Quinazolin-4-Amine]
 | 11 ± 2 | 77 ± 2 |  | c1ccc(C(CNc2nc(-c3ccc4nccn4c3)nc3ccccc23)c2ccncc2)cc1 (stereo not drawn) [compound 106, 2-(Imidazo[1,2-A]Pyridin-6-yl)-N-(2-Phenyl-2-(Pyridin-4-yl)Ethyl)Quinazolin-4-Amine]
240 |  |  |  | CN(C)Cc1cnc2ccc(-c3nc(NCC(c4ccccc4)c4ccccc4)c4ccccc4n3)cn12 [compound 112, 2-(3-((Dimethylamino)methyl)Imidazo[1,2-A]pyridin-6-yl)-N-(2,2-Diphenylethyl)Quinazolin-4-Amine]
 | 49 ± 9 | 71 ± 2 |  | CN1CCN(C(CNc2nc(-c3cnc4nccn4c3)nc3ccccc23)c2ccccc2)CC1 (stereo not drawn) [compound 129, 2-(Imidazo[1,2-A]Pyrimidin-6-yl)-N-(2-(4Methylpiperazin-1-yl)-2-Phenylethyl)Quinazolin-4-Amine]
203 |  |  |  | O=S(=O)(c1ccccc1)n1ccc2cc(-c3nc(NCC(c4ccccc4)c4ccccc4)c4ccccc4n3)ccc21 [compound 36, N-(2,2-Diphenylethyl)-2-(1-(Phenylsulfonyl)-1H-Indol-5-yl)Quinazolin-4-Amine]
225 to 227 |  |  |  | CN1CCN(C(CNc2nc(-c3ccc4nccn4c3)nc3ccccc23)c2ccccc2)CC1 (stereo not drawn) [compound 126, 2-(Imidazo[1,2-A]Pyridin-6-yl)-N-(2-(4-Methylpiperazin-1-yl)-2-Phenylethyl)Quinazolin-4-Amine]
67 |  |  |  | c1ccc(C(CNc2nc(-c3cccc4cc[nH]c34)nc3ccccc23)c2ccccc2)cc1 [compound 33, N-(2,2-Diphenylethyl)-2-(1H-Indol-7-yl)Quinazolin-4-Amine]
180 to 182 |  |  |  | c1ccc(C(Nc2nc(-c3cc4ccccc4s3)nc3ccccc23)c2ccccc2)cc1 [compound 8, N-Benzhydryl-2-(benzo[b]thiophen-2-yl)quinazolin-4-amine]

melting point [°C] | IC50 [1, 2] [nM] | Emax [1, 3] [%] | other results | Structure (SMILES)
83 |  |  |  | Clc1cccc(C(CNc2nc(-c3cccnc3)nc3ccccc23)c2ccccc2)n1 (stereo not drawn) [compound 53, N-(2-(6-Chloropyridin-2-yl)-2-Phenylethyl)-2-(Pyridin-3-yl)Quinazolin-4-Amine]
 | 385 ± 89 | 72 ± 4 |  | Nc1ncc(-c2nc(NCC(c3ccccc3)c3ccccn3)c3ccccc3n2)cn1 (stereo not drawn) [compound 95, 2-(2-Aminopyrimidin-5-yl)-N-(2-Phenyl-2-(Pyridin-2-yl)Ethyl)Quinazolin-4-Amine]
 | 480 | 100 |  | c1ccc(C(CNc2nc(-c3cccnc3)nc3ccccc23)c2ccccc2)cc1 [compound 2, N-(2,2-Diphenylethyl)-2-(pyridin-3-yl)quinazolin-4-amine]
 | 9.1 ± 2.1 | 73 ± 3 |  | c1ccc(C(CNc2nc(-c3cnc4ccnn4c3)nc3ccccc23)c2ccccc2)cc1 [compound 199, N-(2,2-Diphenylethyl)-2-(Pyrazolo[1,5-a]Pyrimidin-6-yl)Quinazolin-4-Amine]
 | 229 ± 54 | 47 ± 2 |  | c1ccc(C(CNc2nc(-c3ccc4nnnn4c3)nc3ccccc23)c2ccccc2)cc1 [compound 108, N-(2,2-Diphenylethyl)-2-(Tetrazolo[1,5-A]Pyridin-6-yl)Quinazolin-4-Amine]
 | 2.3 ± 0.3 | 74 ± 2 |  | FC(F)(F)c1cc2nccn2cc1-c1nc(NCC(c2ccccc2)c2ccccc2)c2ccccc2n1 [compound 200, N-(2,2-Diphenylethyl)-2-(7-(Trifluoromethyl)Imidazo[1,2-a]Pyridin-6-yl)Quinazolin-4-Amine]
 | 1.7 ± 0.2 | 72 ± 1 |  | Cc1cc2nccn2cc1-c1nc(NCC(c2ccc(F)cc2)c2ccc(F)cc2)c2ccccc2n1 [compound 203, N-(2,2-Bis(4-Fluorophenyl)Ethyl)-2-(7-Methylimidazo[1,2-a]Pyridin-6-yl)Quinazolin-4-Amine]
211 |  |  |  | Nc1ncc(-c2nc(NCC(c3ccccc3)c3ncccn3)c3ccccc3n2)cn1 (stereo not drawn) [compound 104, 2-(2-Aminopyrimidin-5-yl)-N-(2Phenyl-2-(Pyrimidin-2-yl)Ethyl)Quinazolin-4-Amine]
201 to 203 |  |  |  | c1ccc(C(CCNc2nc(-c3cc4ccccc4s3)nc3ccccc23)c2ccccc2)cc1 [compound 19, N-(3,3-Diphenylpropyl)-2-(Benzo [B]Thiophen-2-yl)Quinazolin-4-Amine]
 | 299 ± 45 | 70 ± 2 |  | c1ccc2c(NCC(c3ccncc3)c3ccncc3)nc(-c3cnc4nccn4c3)nc2c1 [compound 176, N-(2,2-Di(Pyridin-4-yl)Ethyl)-2-(Imidazo[1,2-A]Pyrimidin-6-yl)Quinazolin-4-Amine]
235 to 237 |  |  |  | c1ccc(C(CNc2nc(-c3ccc4nccn4c3)nc3ccccc23)c2ccc[nH]2)nc1 (stereo not drawn) [compound 159, 2-(Imidazo[1,2-A]pyridin-6-yl)-N-(2-(Pyridin-2-yl)-2-(1H-Pyrrol-2-yl)Ethyl)Quinazolin-4-Amine]
 | 55 ± 10 | 69 ± 2 |  | c1ccc(C(CNc2nc(-c3cnc4nccn4c3)nc3ccccc23)N2CCOCC2)cc1 (stereo not drawn) [compound 128, 2-(Imidazo[1,2-A]Pyrimidin-6-yl)-N-(2-Morpholino-2-Phenylethyl)Quinazolin-4-Amine]
 | 89 ± 27 | 81 ± 4 |  | c1ccc(C(CNc2nc(-c3cnc4nccn4c3)nc3ccccc23)N2CCCCC2)cc1 (stereo not drawn) [compound 120, 2-(Imidazo[1,2-A]Pyrimidin-6-yl)-N-(2-Phenyl-2-(Piperidin-1-yl)Ethyl)Quinazolin-4-Amine]
 | 208 ± 34 | 92 ± 3 |  | Cc1ccc(-c2nc(NCC(c3ccccc3)c3ccccc3)c3ccccc3n2)c2nccn12 [compound 197, N-(2,2-Diphenylethyl)-2-(5-Methylimidazo[1,2-A]pyridin-8-yl)Quinazolin-4-Amine]
 | 31 ± 7 | 72 ± 3 |  | c1ccc(C(CNc2nc(-c3cnc4nccn4c3)nc3ccccc23)c2cccnc2)cc1 (stereo not drawn) [compound 134, 2-(Imidazo[1,2-A]Pyrimidin-6-yl)-N-(2-Phenyl-2-(Pyridin-3-yl)Ethyl)Quinazolin-4-Amine]
 |  |  | IC50 ([1]; One-Site IC50 (nM), [^3H]DA uptake dose-response curve fit to one-component equation): 15 ± 7 nM; IC50 ([1]; Two-Site IC50-1 (nM), [^3H]DA uptake dose-response curve fit to two-component equation, component 1): 6 ± 0.9 nM; IC50 ([1]; Two-Site IC50-2 (nM), [^3H]DA uptake dose-response curve fit to two-component equation, component 2): 4000 ± 1330 nM; efficacy of [^3H]DA (DAT) uptake inhibition, in words ([1]; partial versus full inhibition): partially inhibit; Emax ([1]; read-out: One-Site Emax (% I)): 75 ± 5%; Emax ([1]; read-out: Two-Site Emax-1 (% I)): 57 ± 2%; Emax ([1]; read-out: Two-Site Emax-2 (% I)): 42 ± 4% | CN(C)c1ccc(-c2nc(NCC(c3ccccc3)N3CCOCC3)c3ccccc3n2)cc1 (stereo not drawn) [SRI-30835]
 | 150 | 100 |  | c1ccc(C(Nc2nc(N3CCCCC3)nc3ccccc23)c2ccccc2)cc1 [compound 3, N-Benzhydryl-2-(piperidin-1-yl)quinazolin-4-amine]
